Target: T1, mS29 (Saccharomyces cerevisiae, UniProt Q01163)
T1 construct: gene RSM23; native subunit within the mitoribosomal small subunit purified from yeast mitochondria
Assay: cryo-EM structure of the SSU […] Å
Assay type: binding
Settings: within the mitoribosomal SSU; nucleotide pocket; reassigned from GDP

Structure (SMILES): Nc1ncnc2c1ncn2[C@@H]1O[C@H](COP(=O)(O)OP(=O)(O)OP(=O)(O)O)[C@@H](O)[C@H]1O [adenosine triphosphate]
- cryo-EM structure of the SSU 2.3 Å: guanosine diphosphate (GDP) to adenosine triphosphate (ATP) in the nucleotide pocket of the protein mS29

From paper PMC11046306, “METTL17 is an Fe-S cluster checkpoint for mitochondrial translation” (Molecular cell, 2024)
